Laboratory results reported in patent US7084172B2, “Bioprecursors for percutaneous application” (Pierre Fabre Dermo-Cosmetique, priority 2001, dated 2006).

Test system: HaCaT keratinocyte line
Assay: Enzymatic hydrolysis by esterase activity in HaCaT keratinocytes
Format: in vitro ADME, human
Protocol: 150 μl of a 1 mM solution in dimethyl sulphoxide (DMSO) are placed in a dish containing an HaCaT keratinocyte line (75 cm^2) in 15 ml of serum alone. The cells are placed in the incubator at 37° C. for 24 hours. The medium is extracted with 15 ml of ethyl acetate. The organic phase is then isolated and evaporated off.
The cells are extracted by sonication into 2×15 ml of an ice-cold mixture consisting of chloroform and methanol (1:2.5). After centrifugation, the organic phase collected is evaporated to dryness. For each test, a control is performed on a dish containing cells and a substrate-free medium to take account of a possible chemical degradation of the substrate.
The presence of esterase activity in the human keratinocytes is checked by means of a substrate, 4-methylumbelliferyl palmitate. The precursor according to the invention, used as pseudosubstrate, is the tocopheryl retinyl succinate prepared according to example 1.

| SMILES | Degree of hydrolysis in 24 hours of incubation (150 μl of 1 mM DMSO solution in 15 ml serum, HaCaT keratinocytes, 37° C., 24 hours) | Degree of hydrolysis in 24 hours of incubation (human, 24 h, 10 µM) |
| --- | --- | --- |
| CCCCCCCCCCCCCCCC(=O)Oc1ccc2c(C)cc(=O)oc2c1 [4-Methylumbelliferyl palmitate, 4-methylumbelliferyl palmitate] | 2.7% ± 2% | – |
| CC1=C(/C=C/C(C)=C/C=C/C(C)=C/COC(=O)CCC(=O)Oc2c(C)c(C)c3c(c2C)CCC(C)(CCCC(C)CCCC(C)CC(C)C)O3)C(C)(C)CCC1 (centres unmarked) [Tocopheryl retinyl succinate, O-(4-Oxo-4-{[2,5,7,8-tetramethyl-2-(4,8,12-trimethyltridecyl)-3,4-dihydro-2H-chromen-6-yl]oxy}butanoyl)retinol] | – | 5% ± 3% |
